In PMC3172082 (Nature, 2009):
Several values for one entry are separate records, joined by “and”; a condition that tells them apart may be missing. Identical values can stand only once.

Columns and labels:
mycobacterial proteasome = mycobacterial proteasome (Mycobacterium bovis, UniProt A1KKF3); experiment: cell-based; design: species or system Mycobacterium bovis var. BCG; conditions: for inhibition at 50 µM: read-out: inhibition of mycobacterial proteasome activity in intact BCG
Mtb Erdman = format: cell-based, Mycobacterium tuberculosis; conditions: non-replicating Mtb
[1] = tested on: human monocyte-derived macrophages; experiment: Cytotoxicity to human monocyte-derived macrophages; format: cell-based; conditions: 7 days incubation; GL5 and HT1171 up to 75 μM
BCG = format: cell-based, Mycobacterium bovis var. BCG
Mtb 20SOG = format: biochemical, Mycobacterium tuberculosis; conditions: by partition ratios
Mtb20SOG = Mtb20SOG (Mycobacterium tuberculosis, UniProt P9WHT9); experiment: High throughput screen, Mtb20SOG hydrolysis of Suc-LLVY-AMC; format: biochemical; conditions: 33 μM test compounds
Chain of Mtb20SOG (P9WHT9 whole entry, looked up): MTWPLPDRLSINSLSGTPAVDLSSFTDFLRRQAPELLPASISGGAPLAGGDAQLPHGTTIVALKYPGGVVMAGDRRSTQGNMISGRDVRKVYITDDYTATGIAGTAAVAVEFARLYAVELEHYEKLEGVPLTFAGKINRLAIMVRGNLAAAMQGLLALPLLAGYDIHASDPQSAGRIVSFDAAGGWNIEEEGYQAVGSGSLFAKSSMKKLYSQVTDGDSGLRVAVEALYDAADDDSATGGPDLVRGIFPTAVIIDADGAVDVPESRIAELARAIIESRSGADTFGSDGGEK

Chain of mycobacterial proteasome (A1KKF3 whole entry, looked up): as the sequence (P9WHT9 whole entry, looked up) above

| SMILES | inhibition at 50 µM (mycobacterial proteasome) [%] | mycobactericidal activity compared with GL5 and HT1171 (in words) (Mtb Erdman; DETA-NO, 4 days) | toxicity to human macrophages [1] | reduction of proteasome activity in intact BCG (mycobacterial proteasome) | killing of BCG (in words) (BCG) | Mtb killed over 4 days in synergy with nitric oxide (Mtb Erdman; dose-dependent, 50 μM DETA-NO) | fold more effective against Mtb proteasomes than human proteasomes (Mtb 20SOG) [fold] | activity in screen against Mtb20SOG (Mtb20SOG) |
| --- | --- | --- | --- | --- | --- | --- | --- | --- |
| CC(C)C[C@H](NC(=O)[C@H](Cc1ccccc1)NC(=O)c1cnccn1)B(O)O [bortezomib, reference compound] | 52 | less mycobactericidal | toxic |  |  |  |  |  |
| CSc1sc(C)cc1-c1nsc(=O)o1 [GL5, 5-(5-methyl-2-(methylthio)thiophen-3-yl)-1,3,4-oxathiazol-2-one] | ~90 |  | no apparent toxicity | > 80% and ~ 50% | killed BCG alone and in synergy with sub-bacteriostatic fluxes of nitric oxide | 1.5-2.5 log10 | > 1000 |  |
| Cc1cc(-c2nsc(=O)o2)c(S(C)(=O)=O)s1 [GL6, 5-(5-methyl-2-(methylsulfonyl)thiophen-3-yl)-1,3,4-oxathiazol-2-one] |  |  |  |  |  |  |  | inactive |
